We go through 20 compounds from patent US11214557B2, “MAGL inhibitors” (H. Lundbeck A/S, priority 2018, dated 2022).

Bounds are passed on as bounds.

For test [1], the target named is MAGL (Homo sapiens (Human), UniProt Q99685). Put plainly: In vitro competitive activity-based protein profiling (human proteomes). It is filed as biochemical. The conditions noted are these: human proteome; for inhibition at 1 µM: 1 μM inhibitor, read-out: MAGL % inh. 1 μM (human). The protocol: In Vitro Competitive Activity-Based Protein Profiling
Proteomes (mouse brain membrane fraction or cell lysates for mouse assays; human prefrontal cortex or cell membrane fractions for human assays) (50 μL, 1.0 mg/mL total protein concentration) were preincubated with varying concentrations of inhibitors at 37° C. After 30 min, FP—Rh or HT-01 (1.0 μL, 50 μM in DMSO) was added and the mixture was incubated for another 30 min at 37° C. Reactions were quenched with SDS loading buffer (15 μL—4×) and run on SDS-PAGE.

The target in test [2] is MAGL (Mus musculus (Mouse), UniProt O35678). In words: Mouse brain proteomes from inhibitor treated mice (oral gavage, ABPP analysis). The test is classed as in vivo. The note with it: 5 mg/kg oral gavage, 4 h after administration, read-out: MAGL % inh. 5 mg/kg (mouse). The protocol:
Preparation of Mouse Brain Proteomes from Inhibitor Treated Mice
Inhibitors were administered to wild-type C57Bl/6J by oral gavage in a vehicle of polyethylene glycol.

Sequence of MAGL (Homo sapiens (Human), UniProt Q99685) (Q99685 whole entry): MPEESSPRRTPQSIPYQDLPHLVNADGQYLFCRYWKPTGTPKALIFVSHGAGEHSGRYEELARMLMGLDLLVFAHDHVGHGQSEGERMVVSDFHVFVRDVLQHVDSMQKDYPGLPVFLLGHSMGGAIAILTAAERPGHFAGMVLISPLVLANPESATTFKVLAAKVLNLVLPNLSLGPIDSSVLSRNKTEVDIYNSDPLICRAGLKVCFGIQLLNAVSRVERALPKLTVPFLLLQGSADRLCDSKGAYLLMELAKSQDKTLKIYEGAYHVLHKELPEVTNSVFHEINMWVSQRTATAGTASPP
Sequence of MAGL (Mus musculus (Mouse), UniProt O35678) (O35678 whole entry): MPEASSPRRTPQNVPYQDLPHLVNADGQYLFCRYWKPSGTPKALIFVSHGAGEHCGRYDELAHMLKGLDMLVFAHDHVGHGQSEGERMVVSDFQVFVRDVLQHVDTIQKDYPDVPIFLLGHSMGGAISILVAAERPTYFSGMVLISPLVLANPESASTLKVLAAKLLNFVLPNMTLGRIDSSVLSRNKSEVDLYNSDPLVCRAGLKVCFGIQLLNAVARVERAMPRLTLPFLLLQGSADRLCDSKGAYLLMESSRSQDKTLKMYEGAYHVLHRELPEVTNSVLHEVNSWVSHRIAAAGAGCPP

Take `CC(C)(Oc1cc(Cl)ccc1CN1CCN(C(=O)OC(C(F)(F)F)C(F)(F)F)CC1)C(=O)O` [Example 1, 2-(5-Chloro-2-((4-(((1,1,1,3,3,3-hexafluoropropan-2-yl)oxy)carbonyl)piperazin-1-yl)methyl)phenoxy)-2-methylpropanoic acid]: in test [1], the inhibition at 1 µM was > 75% and the IC50 was < 50 nM. Moreover, the inhibition at 5 mg/kg in test [2] is 0 to 25%. `CC(C)(Oc1c(CN2CCN(C(=O)OC(C(F)(F)F)C(F)(F)F)CC2)cccc1C(F)(F)F)C(=O)O` [Example 2, 2-(2-((4-(((1,1,1,3,3,3-Hexafluoropropan-2-yl)oxy)carbonyl)piperazin-1-yl)methyl)-6-(trifluoromethyl)phenoxy)-2-methylpropanoic acid]: in test [1], the inhibition at 1 µM was > 75% and the IC50 was < 50 nM. In addition, in test [2], the inhibition at 5 mg/kg was > 75%. Regarding `CC(C)(Oc1cc(C(F)(F)F)ccc1CN1CCN(C(=O)OC(C(F)(F)F)C(F)(F)F)CC1)C(=O)O` [Example 3, 2-(2-((4-(((1,1,1,3,3,3-Hexafluoropropan-2-yl)oxy)carbonyl)piperazin-1-yl)methyl)-5-(trifluoromethyl)phenoxy)-2-methylpropanoic acid], in test [1], the inhibition at 1 µM is > 75% and the IC50 was < 50 nM. Besides, in test [2], the inhibition at 5 mg/kg was > 75%. For `CC(C)(COc1cc(C(F)(F)F)ccc1CN1CCN(C(=O)OC(C(F)(F)F)C(F)(F)F)CC1)C(=O)O` [Example 4, 3-(2-((4-(((1,1,1,3,3,3-Hexafluoropropan-2-yl)oxy)carbonyl)piperazin-1-yl)methyl)-5-(trifluoromethyl)phenoxy)-22-dimethylpropanoic acid], in test [1], the inhibition at 1 µM is > 75% and the IC50 was < 50 nM. For the same compound, the inhibition at 5 mg/kg in test [2] was > 75%. Take `CC(C)(COc1cc(CN2CCN(C(=O)OC(C(F)(F)F)C(F)(F)F)CC2)cc(C(F)(F)F)c1)C(=O)O` [Example 5, 3-(3-((4-(((1,1,1,3,3,3-Hexafluoropropan-2-yl)oxy)carbonyl)piperazin-1-yl)methyl)-5-(trifluoromethyl)phenoxy)-2,2-dimethylpropanoic acid]: in test [1], the inhibition at 1 µM is > 75% and the half-maximal inhibitory concentration (IC50) is < 50 nM. In test [2], the inhibition at 5 mg/kg is > 75%. `CC(C)(Oc1cc(C(F)(F)F)ccc1CN1CCN(C(=O)OC(C(F)(F)F)C(F)(F)F)CC1)C(=O)NS(=O)(=O)C1CC1` [Example 6, 1,1,1,3,3,3-Hexafluoropropan-2-yl 4-(2-((1-(cyclopropanesulfonamido)-2-methyl-1-oxopropan-2-yl)oxy)-4-(trifluoromethyl)benzyl)piperazine-1-carboxylate]: in test [1], the inhibition at 1 µM is > 75% and the IC50 was < 50 nM. Further, the inhibition at 5 mg/kg in test [2] was 0 to 25%. With `O=C(O)COc1c(F)cccc1CN1CCN(C(=O)OC(C(F)(F)F)C(F)(F)F)CC1` [Example 11, 2-(2-Fluoro-6-((4-(((1,1,1,3,3,3-hexafluoropropan-2-yl)oxy)carbonyl)piperazin-1-yl)methyl)phenoxy)acetic acid], the inhibition at 1 µM in test [1] was 50 to 75%.

For the compound `CCOC(=O)OC(C)OC(=O)C(C)(C)Oc1cc(C(F)(F)F)ccc1CN1CCN(C(=O)OC(C(F)(F)F)C(F)(F)F)CC1` (stereo not drawn) [Example 12, 1,1,1,3,3,3-Hexafluoropropan-2-yl 4-(2-((1-(1-((ethoxycarbonyl)oxy)ethoxy)-2-methyl-1-oxopropan-2-yl)oxy)-4-(trifluoromethyl)benzyl)piperazine-1-carboxylate], the inhibition at 1 µM in test [1] was > 75%. Consider `CC(OC(=O)C(C)C)OC(=O)C(C)(C)Oc1cc(C(F)(F)F)ccc1CN1CCN(C(=O)OC(C(F)(F)F)C(F)(F)F)CC1` (stereo not drawn) [Example 13, 1,1,1,3,3,3-Hexafluoropropan-2-yl 4-(2-((1-(1-(isobutyryloxy)ethoxy)-2-methyl-1-oxopropan-2-yl)oxy)-4-(trifluoromethyl)benzyl)piperazine-1-carboxylate], for which the inhibition at 1 µM in test [1] was > 75%. Consider `Cc1ccc(CN2CCN(C(=O)OC(C(F)(F)F)C(F)(F)F)CC2)c(OC(C)(C)C(=O)O)c1Cl` [Example 17, 2-(2-Chloro-6-((4-(((1,1,1,3,3,3-hexafluoropropan-2-yl)oxy)carbonyl)piperazin-1-yl)methyl)-3-methylphenoxy)-2-methylpropanoic acid], for which, in test [1], the inhibition at 1 µM was > 75% and the 50% inhibitory concentration (IC50) is < 50 nM. Further, the inhibition at 5 mg/kg in test [2] lay in the range of 50 to 75%. As for `CC(C)(Oc1cc(C#N)ccc1CN1CCN(C(=O)OC(C(F)(F)F)C(F)(F)F)CC1)C(=O)O` [Example 26, 2-(5-Cyano-2-((4-(((1,1,1,3,3,3-hexafluoropropan-2-yl)oxy)carbonyl)piperazin-1-yl)methyl)phenoxy)-2-methylpropanoic acid], in test [1], the inhibition at 1 µM was > 75% and the IC50 was < 50 nM. As to `COc1ccc(OC(C)(C)C(=O)O)cc1CN1CCN(C(=O)OC(C(F)(F)F)C(F)(F)F)CC1` [Example 35, 2-(3-((4-(((1,1,1,3,3,3-Hexafluoropropan-2-yl)oxy)carbonyl)piperazin-1-yl)methyl)-4-methoxyphenoxy)-2-methylpropanoic acid], the inhibition at 10 µM in test [1] (10 μM inhibitor, read-out: MAGL % inh. (human) @ 10 μM) was > 75%. `O=C(O)COc1cc(CN2CCN(C(=O)OC(C(F)(F)F)C(F)(F)F)CC2)cc(OC(F)(F)F)c1` [Example 44, 2-(3-((4-(((1,1,1,3,3,3-Hexafluoropropan-2-yl)oxy)carbonyl)piperazin-1-yl)methyl)-5-(trifluoromethoxy)phenoxy) acetic acid]: in test [1], the inhibition at 1 µM was > 75% and the IC50 is < 50 nM.

With `C[C@@H](Oc1cc(C#N)ccc1CN1CCN(C(=O)OC(C(F)(F)F)C(F)(F)F)CC1)C(=O)O` [Example 45, (R)-2-(5-Cyano-2-((4-(((1,1,1,3,3,3-hexafluoropropan-2-yl)oxy)carbonyl)piperazin-1-yl)methyl)phenoxy) propanoic acid], the inhibition at 1 µM in test [1] is > 75%. On the same count and under the same terms, for `C[C@H](Oc1cc(C#N)ccc1CN1CCN(C(=O)OC(C(F)(F)F)C(F)(F)F)CC1)C(=O)O` [Example 46, (S)-2-(5-Cyano-2-((4-(((1,1,1,3,3,3-hexafluoropropan-2-yl)oxy)carbonyl)piperazin-1-yl)methyl)phenoxy) propanoic acid] the value was > 75%.

As to `CC(C)(Oc1cc(CN2CCN(C(=O)OC(C(F)(F)F)C(F)(F)F)CC2)cc(C(F)(F)F)c1)C(=O)O` [Example 47, 2-(3-((4-(((1,1,1,3,3,3-Hexafluoropropan-2-yl)oxy)carbonyl)piperazin-1-yl)methyl)-5-(trifluoromethyl)phenoxy)-2-methylpropanoic acid], in test [1], the inhibition at 1 µM is > 75% and the IC50 was < 50 nM. Consider `Cc1ccc(CN2CCN(C(=O)OC(C(F)(F)F)C(F)(F)F)CC2)c(OCC(C)(C)C(=O)O)c1F` [Example 48, 3-(2-Fluoro-6-((4-(((1,1,1,3,3,3-hexafluoropropan-2-yl)oxy)carbonyl)piperazin-1-yl)methyl)-3-methylphenoxy)-2,2-dimethylpropanoic acid], for which, in test [1], the inhibition at 1 µM was > 75% and the IC50 is < 50 nM. Moreover, the inhibition at 5 mg/kg in test [2] was > 75%. In the case of `CC(C)(C)C(=O)OCOC(=O)C(C)(C)Oc1cc(C(F)(F)F)ccc1CN1CCN(C(=O)OC(C(F)(F)F)C(F)(F)F)CC1` [Example 49, 1,1,1,3,3,3-Hexafluoropropan-2-yl 4-(2-((2-methyl-1-oxo-1-((pivaloyloxy)methoxy)propan-2-yl)oxy)-4-(trifluoromethyl)benzyl) piperazine-1-carboxylate], in test [1], the inhibition at 1 µM was > 75%. Regarding `CCOC(=O)C(C)(C)Oc1cc(C(F)(F)F)ccc1CN1CCN(C(=O)OC(C(F)(F)F)C(F)(F)F)CC1` [Example 50, 1,1,1,3,3,3-Hexafluoropropan-2-yl 4-(2-((1-ethoxy-2-methyl-1-oxopropan-2-yl)oxy)-4-(trifluoromethyl)benzyl) piperazine-1-carboxylate], in test [1], the inhibition at 1 µM is > 75%. `CC(C)OC(=O)OC(C)OC(=O)C(C)(C)Oc1cc(C(F)(F)F)ccc1CN1CCN(C(=O)OC(C(F)(F)F)C(F)(F)F)CC1` (stereo not drawn) [Example 51, 1,1,1,3,3,3-Hexafluoropropan-2-yl 4-(2-((1-(1-((isopropoxycarbonyl)oxy)ethoxy)-2-methyl-1-oxopropan-2-yl)oxy)-4-(trifluoromethyl)benzyl) piperazine-1-carboxylate]: in test [1], the inhibition at 1 µM was > 75%.
